Measurements: publication PMC3994029 (PLoS ONE, 2014)

Key:
Test in all cases: competition of […]-glucose uptake by germinating conidia
Format in all cases: cell-based
MstC (SorA) [1] = molecular target: T1, MstC (SorA) (Aspergillus nidulans, UniProt Q5AYG1); settings: wild type V004 conidia germinated on glycerol; 16 µM 14C-glucose, 200-fold excess competitor (3.2 mM)
T1 construct: gene ANIA_06669; native full-length protein, 534 aa, in intact germinating conidia (4 h, glycerol)
T1 sequence (Q5AYG1 1-534): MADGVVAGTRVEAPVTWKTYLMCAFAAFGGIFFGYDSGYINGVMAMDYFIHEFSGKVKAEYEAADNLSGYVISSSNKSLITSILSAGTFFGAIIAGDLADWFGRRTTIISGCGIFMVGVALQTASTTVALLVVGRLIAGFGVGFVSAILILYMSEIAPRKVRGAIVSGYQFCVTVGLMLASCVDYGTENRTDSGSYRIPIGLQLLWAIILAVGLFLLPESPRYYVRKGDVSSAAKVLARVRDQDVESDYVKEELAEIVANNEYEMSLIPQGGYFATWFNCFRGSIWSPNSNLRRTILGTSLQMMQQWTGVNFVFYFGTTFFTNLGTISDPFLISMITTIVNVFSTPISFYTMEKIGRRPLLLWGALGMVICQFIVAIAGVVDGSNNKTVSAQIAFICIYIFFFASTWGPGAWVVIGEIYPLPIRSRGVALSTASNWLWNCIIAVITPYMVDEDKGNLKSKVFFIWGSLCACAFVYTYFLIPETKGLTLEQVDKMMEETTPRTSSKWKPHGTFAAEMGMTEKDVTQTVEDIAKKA

MstA = molecular target: T2, MstA (Aspergillus nidulans, UniProt Q5ASJ3); settings: V152 conidia germinated on glycerol; 90 µM 14C-glucose, 200-fold excess competitor (18 mM); minor low-affinity background uptake
T2 construct: gene ANIA_08737; full-length protein, 527 aa, homologous expression from mstC promoter in mstA mstC double-deleted A. nidulans; intact germinating conidia

MstC (SorA) [2] = molecular target: T1, MstC (SorA); settings: wild type V004 conidia germinated on glycerol; 16 µM 14C-glucose, 200-fold excess competitor (3.2 mM); remark: listed apart in the source

T2 sequence (Q5ASJ3 entry or part of it): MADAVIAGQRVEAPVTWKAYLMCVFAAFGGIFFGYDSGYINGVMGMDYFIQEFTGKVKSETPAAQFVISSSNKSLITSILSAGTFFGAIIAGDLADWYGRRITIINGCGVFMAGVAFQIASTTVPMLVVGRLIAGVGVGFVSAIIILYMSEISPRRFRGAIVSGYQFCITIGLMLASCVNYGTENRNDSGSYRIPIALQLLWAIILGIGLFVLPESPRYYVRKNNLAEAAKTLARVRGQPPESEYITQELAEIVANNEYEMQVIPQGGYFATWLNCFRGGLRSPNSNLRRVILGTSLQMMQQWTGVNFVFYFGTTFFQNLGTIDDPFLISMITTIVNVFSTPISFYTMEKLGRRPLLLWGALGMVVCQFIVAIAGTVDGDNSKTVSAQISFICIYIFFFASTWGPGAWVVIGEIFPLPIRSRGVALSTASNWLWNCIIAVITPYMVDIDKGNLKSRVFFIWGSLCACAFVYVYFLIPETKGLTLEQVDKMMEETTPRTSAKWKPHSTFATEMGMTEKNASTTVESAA

SMILES	relative uptake rate, % of control (MstC (SorA) [1])	relative uptake rate, % of control (MstA)	% reduction of uptake (MstC (SorA) [2])
CO[C@H]1[C@H](O)[C@@H](CO)OC(O)[C@@H]1O (stereo partly drawn) [3-O-methyl glucose]	most effective competitor, along with the glucose analogues 2-DOG and 3-O-methyl glucose		
OC1OC[C@@H](O)[C@H](O)[C@H]1O (stereo partly drawn) [xylose]		xylose and galactose may also be minor physiological sugar substrates for this transporter	
OC[C@H]1OC(O)C[C@@H](O)[C@@H]1O (stereo partly drawn) [2-DOG]	most effective competitor, along with the glucose analogues 2-DOG and 3-O-methyl glucose		
OC[C@H]1OC(O)[C@H](O)[C@@H](O)[C@H]1O (stereo partly drawn) [galactose]		xylose and galactose may also be minor physiological sugar substrates for this transporter	
OC[C@H]1OC(O)[C@@H](O)[C@@H](O)[C@@H]1O (stereo partly drawn) [mannose]		mannose is the most effective substrate of those studied in competing against glucose uptake	80%
